Assay results from patent US20230043518A1, “CANCER IMMUNOTHERAPY” (AXELIA ONCOLOGY PTY LTD, priority 2019, published 2023).

Test system: 4T1.2 (breast cancer)
Assay: 4T1.2 breast cancer metastasis model
Format: in vivo, mouse
Settings: compound 1 combined with anti-PD1 (data not shown)
Protocol: C57BL/6 or Balb/c Wild-type (WT) mice were purchased from Walter and Eliza Hall Institute for Medical Research or bred in house and maintained at the QIMR Berghofer Medical Research Institute. Mice greater than 8 weeks of age were sex-matched to the appropriate models. In all studies, no mice were excluded based on pre-established criteria and randomization was applied immediately prior to treatment in therapy experiments. Experiments were conducted as approved by the QIMR Berghofer Medical Research Institute Animal Ethics Committee.
Mouse B16F10 (melanoma), MC38 (colon adenocarcinoma) and 4T1.2 (breast cancer) cells were grown in Dulbecco's Modified Eagle Medium (DMEM) supplemented with 10% Fetal Calf Serum (Bovogen), 1% Glutamine (Gibco), and 1% Penicillin/Streptomycin (Gibco). B16F10 and 4T1.2 cells were maintained at 37° C., 5% CO2. MC38 cells were maintained at 37° C., 10% CO2. All cell lines were routinely tested negative for Mycoplasma, but cell line authentication was not routinely performed.
5×10^4 4T1.2 cells were injected into the 4th mammary fat pad in a volume of 50 μl (day 0). On day 12 after injection, primary tumours were surgically removed under isoflurane anesthesia. Mice were injected treated as indicated in figure legends on day 15, 18 and 21 after tumour cell injection. […] For this, macroscopic visible lung metastases were counted. […]

Q: `CCCCCCCCCCCCCCCC(=O)OCC(CSCC(N)C(=O)N[C@@H](CO)C(=O)NCCOCCOCCOCCOCCOCCOCCOCCOCCOCCOCCOCCOCCC(=O)NCC(N)=O)OC(=O)CCCCCCCCCCCCCCC` (stereo partly shown) [compound 1] was tested. Which weight loss did it give?
A: without affecting weight loss
